IC50 data for 28 compounds are collected here from ChEMBL document CHEMBL1141866, “Synthesis and evaluation of thiazole carboxamides as vanilloid receptor 1 (TRPV1) antagonists” (Bioorg Med Chem Lett, 2005).

Test [1] can be described thus: Ability to block capsaicin-induced calcium influx in rat-human chimera TRPV1 expressing CHO cells. It is filed as cell-based.
The nature of test [2]: Ability to block acid-induced calcium influx in rat-human chimera TRPV1 expressing CHO cells. It is filed as cell-based.

For `O=C(Nc1ccccc1)c1csc(Cc2c(Cl)cccc2Cl)n1`, the IC50 in test [1] and in test [2] was > 4000 nM throughout.

Take `CN(C)c1ccc(NC(=O)c2csc(Cc3c(Cl)cccc3Cl)n2)cc1`: the half-inhibitory concentration (IC50) is > 4000 nM in test [1] and 1270 nM in test [2].

Regarding `COc1ccc(NC(=O)c2csc(Cc3c(Cl)cccc3Cl)n2)cc1`, the IC50 in test [1] and in test [2] was > 4000 nM in each case.

Consider `Cc1cccc(C)c1Nc1nc(C(=O)Nc2ccc(C(F)(F)F)cc2)cs1`, for which the IC50 in test [1] was determined as 90 nM; in test [2], 82 nM.

`O=C(Nc1ccc(C(F)(F)F)cc1)c1csc(Nc2c(Cl)cncc2Cl)n1`: the IC50 in test [1] was 360 nM; in test [2], 880 nM.

For `O=C(Nc1ccc(C(F)(F)F)cc1)c1csc(Nc2c(Cl)cccc2C(F)(F)F)n1`, the IC50 in test [1] and in test [2] was > 4000 nM in each case.

For `Cc1nc(Cc2c(Cl)cccc2Cl)sc1C(=O)Nc1ccc(C(F)(F)F)cc1`, the IC50 in test [2] is > 4000 nM.

In the case of `O=C(Nc1ccc(C(F)(F)F)nc1)c1csc(Cc2c(Cl)cccc2Cl)n1`, the concentration for half-maximal inhibition (IC50) in test [1] stood at 110 nM; in test [2], 130 nM.

With `O=C(Nc1cccc(Br)c1)c1csc(Cc2c(Cl)cccc2Cl)n1`, the IC50 in test [1] and in test [2] was > 4000 nM each time.

Regarding `O=C(Nc1ccccc1Br)c1csc(Cc2c(Cl)cccc2Cl)n1`, the IC50 in test [1] and in test [2] was > 4000 nM in each case.

`O=C(Nc1ccc(C(F)(F)F)cc1)c1cnc(Cc2c(Cl)cccc2Cl)s1`: the values for the IC50 in test [1] and in test [2] were 790 nM and 1780 nM, respectively.

On to `O=C(Nc1ccc(Br)cn1)c1csc(Cc2c(Cl)cccc2Cl)n1`, for which the IC50 in test [1] and in test [2] was > 4000 nM each time.

As to `CC(C)c1ccc(NC(=O)c2csc(Cc3c(Cl)cccc3Cl)n2)cc1`, the IC50 in test [1] stood at 370 nM; in test [2], 520 nM.

In the case of `COc1ccc(NC(=O)c2csc(Cc3c(Cl)cccc3Cl)n2)cn1`, the IC50 in test [1] and in test [2] was > 4000 nM each time.

For `O=C(Nc1ccc(C(F)(F)F)cc1)c1c[nH]c(Cc2c(Cl)cccc2Cl)n1`, the IC50 in test [1] and in test [2] was 230 nM throughout.

As to `O=C(Nc1ccc(C(F)(F)F)cc1)c1csc(Nc2ccccc2Cl)n1`, the values for the IC50 in test [1] and in test [2] were 1750 nM and 1410 nM, respectively.

On to `CCc1ccc(NC(=O)c2csc(Cc3c(Cl)cccc3Cl)n2)cc1`, for which the IC50 in test [1] amounted to 810 nM; in test [2], 1450 nM.

With `O=C(Nc1ccc(C(F)(F)C(F)(F)F)cc1)c1csc(Cc2c(Cl)cccc2Cl)n1`, the IC50 in test [1] stood at 290 nM; in test [2] it was 350 nM.

As to `O=C(Nc1ccc(C(F)(F)F)cc1)c1coc(Cc2c(Cl)cccc2Cl)n1`, the IC50 in test [1] was 62 nM; in test [2] it was 200 nM.

On to `O=C(Nc1ccc(C(F)(F)F)cc1)c1csc(CCc2c(Cl)cccc2Cl)n1`, for which the 50% inhibitory concentration (IC50) in test [1] and in test [2] was > 4000 nM each time.

As to `O=C(Nc1ccc(C(F)(F)F)cc1)c1csc(Oc2c(Cl)cccc2Cl)n1`, the values for the IC50 in test [1] and in test [2] were 870 nM and 1280 nM, respectively.

In the case of `Cn1cc(C(=O)Nc2ccc(C(F)(F)F)cc2)nc1Cc1c(Cl)cccc1Cl`, the results for the IC50 in test [1] and in test [2] were 1010 nM and 1020 nM, respectively.

For `O=C(Nc1ccc(Br)cc1)c1csc(Cc2c(Cl)cccc2Cl)n1`, the IC50 was 400 nM in test [1] and 460 nM in test [2].

`O=C(Nc1ccc(C(F)(F)F)cc1)c1csc(Nc2c(Cl)cccc2Cl)n1`: the IC50 amounted to 51 nM in test [1] and 48 nM in test [2].

As for `N#Cc1ccc(NC(=O)c2csc(Cc3c(Cl)cccc3Cl)n2)cc1`, the 50% inhibitory concentration (IC50) is 450 nM in test [1] and 720 nM in test [2].

For the compound `O=C(Nc1ccc(C(F)(F)F)cc1)c1csc(Cc2c(Cl)cccc2Cl)n1`, in test [2], the IC50 is 88 nM.

For the compound `CC(C)(C)c1ccc(NC(=O)c2csc(Cc3c(Cl)cccc3Cl)n2)cc1`, the IC50 in test [1] is 570 nM; in test [2], 300 nM.

For the compound `O=C(Nc1ccc(C(F)(F)F)cc1)c1csc(-c2c(Cl)cccc2Cl)n1`, the IC50 in test [1] and in test [2] was > 4000 nM throughout.

By IC50 is commonly meant the point on the concentration scale where inhibition reaches its midpoint.
